The values below are quoted from earlier work in CN111214447A, “一种甲磺酸沙芬酰胺固体组合物及其制备方法” (Beijing Wanquan Dezhong Medical Biological Technology Co Ltd, priority 2018, dated 2020).

Each structure is given as a SMILES string. In brackets after ≈: the same amount, converted by molar mass.

For the series the following is noted: aqueous medium, pH=7.

As to `C[C@H](NCc1ccc(OCc2cccc(F)c2)cc1)C(N)=O` [沙芬酰胺, 甲磺酸], the solubility is 10 µg/mL (≈ 33.1 µM).

By solubility is commonly meant how much of the substance goes into solution per volume.
